Consider one cell line from the supplement of paper PMC10307832.

Experiment in all cases: relative viability (nuclei count vs DMSO), 5 days (fraction); higher = more cells survive
Compound in the assay “Obatoclax + Pictilisib”: COC1=CC(c2cc3ccccc3[nH]2)=N/C1=C\c1[nH]c(C)cc1C [Obatoclax] + CS(=O)(=O)N1CCN(Cc2cc3nc(-c4cccc5[nH]ncc45)nc(N4CCOCC4)c3s2)CC1 [Pictilisib] (partner 1 µM)
An outline of the steps:
(§1)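 Relative viability equals treated-well nuclei counts divided by vehicle-well nuclei counts. Counts came from 4× images of lung cancer cell lines grown in 1536-well plates for 5 days after pin-tool dosing on the day after seeding. Dosing used one drug alone or a fixed anchor-drug dose plus five library-drug doses (not always all listed) in √10 steps, and values are medians of duplicate plates.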

Compound in the assay “Bortezomib + Tozasertib”: CC(C)C[C@H](NC(=O)[C@H](Cc1ccccc1)NC(=O)c1cnccn1)B(O)O [Bortezomib] + Cc1cc(Nc2cc(N3CCN(C)CC3)nc(Sc3ccc(NC(=O)C4CC4)cc3)n2)n[nH]1 [Tozasertib] (partner 0.1 µM)
The gist of the method:
as §1

Compound in the assay “Bortezomib + Lapatinib”: CC(C)C[C@H](NC(=O)[C@H](Cc1ccccc1)NC(=O)c1cnccn1)B(O)O [Bortezomib] + CS(=O)(=O)CCNCc1ccc(-c2ccc3ncnc(Nc4ccc(OCc5cccc(F)c5)c(Cl)c4)c3c2)o1 [Lapatinib] (partner 2 µM)
The gist of the method: as §1

Compound in the assay “Obatoclax + Dasatinib”: COC1=CC(c2cc3ccccc3[nH]2)=N/C1=C\c1[nH]c(C)cc1C [Obatoclax] + Cc1nc(Nc2ncc(C(=O)Nc3c(C)cccc3Cl)s2)cc(N2CCN(CCO)CC2)n1 [Dasatinib] (partner 0.075 µM)
An outline of the steps: as §1

As for NCI-H650, the relative viability worked out at 0.812 with Obatoclax + Pictilisib (first compound 0.01 µM); 0.722 in the assay with Obatoclax + Pictilisib (first compound 0.03162 µM); 0.597 with Obatoclax + Pictilisib (first compound 0.1 µM); 0.462 in the assay with Obatoclax + Pictilisib (first compound 0.3162 µM); 0.333 in the assay with Obatoclax + Pictilisib (first compound 1 µM); 0.697 with Bortezomib + Tozasertib (first compound 0.000632 µM). In addition, the relative viability in the assay with Bortezomib + Tozasertib (first compound 0.002 µM) turned out to be 0.637; in the assay with Bortezomib + Tozasertib (first compound 0.006325 µM) it was 0.286; with Bortezomib + Tozasertib (first compound 0.02 µM), 0.133; with Bortezomib + Lapatinib (first compound 0.000632 µM) it was 0.596; in the assay with Bortezomib + Lapatinib (first compound 0.002 µM), 1.02; with Bortezomib + Lapatinib (first compound 0.006325 µM), 0.382. The relative viability in the assay with Bortezomib + Lapatinib (first compound 0.02 µM) is 0.175; with Obatoclax + Dasatinib (first compound 0.01 µM) it was 0.451; with Obatoclax + Dasatinib (first compound 0.03162 µM), 0.431; with Obatoclax + Dasatinib (first compound 0.3162 µM), 0.279; with Obatoclax + Dasatinib (first compound 1 µM), 0.263.
